The source of these data is patent publication US20260347372A1, “SMALL MOLECULE INHIBITORS OF KRAS G12D MUTANT” (MERCK SHARP & DOHME LLC, priority 2023, published 2026).

The target of one assay is KRAS G12D (Homo sapiens, UniProt P01116, G12D). Put plainly: SOS-catalyzed nucleotide exchange assay, KRAS G12D (Procedure A). The assay is classed as biochemical. The following applies: guanine nucleotide exchange (GNE). In outline:
(§1)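 Compounds in 10-point 3-fold series sat 60 min with biotin-KRAS/Bodipy-GDP/Tb-streptavidin complex, then human SOS and 3 mM GTP were added. G13D: 1.25 nM KRAS, no SOS, 30 min. WT and G12D: 1 nM with 40 nM SOS, 60 min. G12C (C51S/C80L/C118S): 3 nM/40 nM, 60 min. Curves fitted from normalised TR-FRET 520/495 ratio.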

The next assay addresses KRAS WT (Homo sapiens, UniProt P01116). Put plainly: SOS-catalyzed nucleotide exchange assay, KRAS WT (Procedure A). The assay is classed as biochemical. The following applies: GNE. The procedure, abridged: as §1
The next assay concerns the target KRAS G12C (Homo sapiens, UniProt P01116, C118S/C51S/C80L/G12C). Put plainly: SOS-catalyzed nucleotide exchange assay, KRAS G12C (Procedure A). Format: biochemical. The following applies: GNE. An excerpt: (§2) Procedure for SOS-Catalyzed Nucleotide Exchange Assay for KRAS-WT, G12C/D/V, G13D, HRAS, and NRAS (Procedure A)
(§3) Recombinant KRAS-G12C protein used in this assay has an additional triple mutation (C51S/C80L/C118S). Whereas KRAS-WT, G12D/V, G13D, HRAS and NRAS are in context of their WT protein sequence background. Specifically, the SOS-catalyzed nucleotide exchange assay utilizes a preformed TR-FRET complex containing a specific biotinylated RAS protein (KRAS-WT, G12C/V/D, G13D, HRAS, NRAS; described above) with Bodipy-GDP, and Terbium-streptavidin. Compounds are preincubated with this complex for 60 minutes. Subsequently, recombinant human SOS protein and unlabeled GTP are added to initiate the exchange reaction. Small molecule inhibitors stabilize the Bodipy-GDP complex whereas the untreated protein rapidly exchanges Bodipy-GDP for unlabeled GTP resulting in reduced TR-FRET signal.
(§4) To assemble the preformed TR-FRET complexes, each biotinylated RAS protein is diluted to 2 μM in an EDTA Buffer (20 mM HEPES pH 7.5, 50 mM sodium chloride, 10 mM EDTA, and 0.01% Tween) and incubated at room temperature for one hour. This mixture is then further diluted to 90 nM in an Assay Buffer (20 mM HEPES pH 7.5, 150 mM sodium chloride, 10 mM magnesium chloride, and 0.005% Tween) containing 15 nM of Terbium-Streptavidin (Invitrogen, catalog #PV3577) and 900 nM of Bodipy-GDP (Invitrogen, catalog #G22360) and incubated at room temperature for six hours. It should be noted that this preformed TR-FRET complex for each of the RAS protein were made ahead of time, aliquoted and stored at −80° C. until the day of the experiment.
(§5) Each test compound (10 mM stock in DMSO) is diluted in DMSO to make a final-10-point, 3-fold dilution and is acoustically dispensed into a 384-well assay plate (Corning, catalog #3820) using an Echo 550 (Labcyte). Each well of the assay plate receives 3 μL of a specific 3×RAS preformed TR-FRET complex and 3 μL of Assay Buffer and is incubated at room temperature for 60 minutes (preincubation time). Each well then receives 3 μL of 3× recombinant human SOS protein and GTP (Sigma, G8877) in Assay Buffer and is incubated at room temperature for 30 minutes (G13D), 60 minutes (KRAS WT/G12C/D, H/NRAS) or 90 minutes for G12V. The final reaction in each well of 9 μL consists of 3 mM GTP, specific Ras and SOS proteins in the following concentrations: KRAS-G12C/SOS=3 nM/40 nM, KRAS-WT and G12D/SOS=1 nM/40 nM, KRAS-G12V/SOS=1.25 nM/160 nM, KRAS-G13D/SOS=1.25 nM/0 nM, HRAS and NRAS=1.25 nM/40 nM.
(§6) The time-resolved fluorescence resonance energy transfer (TR-FRET) signal is measured on an Envision (PerkinElmer) plate reader: Excitation filter=340 nm; emission1=495 nm; emission2=520 nm; dichroic mirror=D400/D505; delay time=[…]. The signal of each well is determined as the ratio of the emission at 520 nm to that at 495 nm. Percent effect of each well is determined after normalization to control wells containing DMSO (no effect) or a saturating concentration of inhibitor (max effect). The apparent effect as a function of compound concentration is fit to a four-parameter logistic equation.
(§7) For Example No. 14, nucleotide exchange assays for KRAS G12D, WT, G12C, and G12V were performed according to Procedure B. All the other compounds were tested according to Procedure A.

The next assay has as its target KRAS G12V (Homo sapiens, UniProt P01116, G12V). Put plainly: SOS-catalyzed nucleotide exchange assay, KRAS G12V (Procedure A). The conditions noted are these: GNE. The assay is classed as biochemical. The procedure, abridged:
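Biotinylated KRAS G12V was loaded with Bodipy-GDP alongside Terbium-streptavidin to form a TR-FRET complex, which was preincubated with compounds for 60 minutes in 384-well plates. Human SOS protein and unlabeled GTP were then added for 90 minutes, giving final concentrations of 1.25 nM KRAS-G12V, 160 nM SOS and 3 mM GTP. The 520/495 nm emission ratio was read on an Envision.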

For another assay, the target named is KRAS G13D (Homo sapiens, UniProt P01116, G13D). Put plainly: SOS-catalyzed nucleotide exchange assay, KRAS G13D (Procedure A). Format: biochemical. The following applies: GNE.
Source text: as §2, §3, §4, §5, §6, §7

In another assay the target is HRAS (Homo sapiens, UniProt P01112). Put plainly: SOS-catalyzed nucleotide exchange assay, HRAS (Procedure A). The assay is classed as biochemical. The conditions noted are these: GNE.
Source text: as §2, §3, §4, §5, §6, §7

A further assay concerns the target NRAS (Homo sapiens, UniProt P01111). Put plainly: SOS-catalyzed nucleotide exchange assay, NRAS (Procedure A). Format: biochemical. The following applies: GNE.
Source text: as §2, §3, §4, §5, §6, §7

A further assay has as its target T1, AsPC-1 cells (Homo sapiens, UniProt P01116, G12D).
T1 construct: p-ERK/total ERK AlphaSureFire read-out
Put plainly: Cellular phospho-ERK assay, AsPC-1 cells (KRAS G12D). Format: cell-based. The conditions noted are these: 2 hours, read-out: AsPC1 pERK IC50. The procedure, abridged: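 Compound was titrated 10-point in 3-fold steps (top 30 μM) on KRAS G12D homozygous pancreatic lines PANC08.13 and AsPC-1 for 2 h at 37 °C. The p-ERK/total ERK ratio was measured by multiplex AlphaLISA SureFire and fitted with a 4-parameter logistic model to give IC50.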

Sequence of KRAS WT (P01116 with tags, fused parts or gaps isoform P01116-2): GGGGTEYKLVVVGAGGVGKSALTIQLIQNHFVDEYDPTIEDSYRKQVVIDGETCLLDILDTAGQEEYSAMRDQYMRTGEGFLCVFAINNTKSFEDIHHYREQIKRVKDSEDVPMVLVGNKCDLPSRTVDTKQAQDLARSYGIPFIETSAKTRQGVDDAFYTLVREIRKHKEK
Sequence of KRAS G12D (P01116 with tags, fused parts or gaps isoform P01116-2 G12D): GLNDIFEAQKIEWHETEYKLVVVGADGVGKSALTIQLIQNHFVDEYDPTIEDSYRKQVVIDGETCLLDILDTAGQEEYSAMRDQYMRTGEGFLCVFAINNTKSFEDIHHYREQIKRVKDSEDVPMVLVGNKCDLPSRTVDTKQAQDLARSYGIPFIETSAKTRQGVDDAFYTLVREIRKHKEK
Sequence of NRAS (P01111 with tags, fused parts or gaps): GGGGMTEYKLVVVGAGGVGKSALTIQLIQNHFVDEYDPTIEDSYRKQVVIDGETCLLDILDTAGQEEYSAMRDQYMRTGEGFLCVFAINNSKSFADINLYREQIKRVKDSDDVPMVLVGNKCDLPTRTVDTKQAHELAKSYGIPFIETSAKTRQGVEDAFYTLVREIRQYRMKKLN
Sequence of KRAS G13D (P01116 with tags, fused parts or gaps isoform P01116-2 G13D): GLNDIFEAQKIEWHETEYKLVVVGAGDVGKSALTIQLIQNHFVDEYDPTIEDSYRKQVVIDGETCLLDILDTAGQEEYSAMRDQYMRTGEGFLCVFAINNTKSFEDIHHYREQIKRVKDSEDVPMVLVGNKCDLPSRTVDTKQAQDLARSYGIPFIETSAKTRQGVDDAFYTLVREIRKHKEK
Sequence of KRAS G12C (P01116 with tags, fused parts or gaps isoform P01116-2 G12C/C51S/C80L/C118S): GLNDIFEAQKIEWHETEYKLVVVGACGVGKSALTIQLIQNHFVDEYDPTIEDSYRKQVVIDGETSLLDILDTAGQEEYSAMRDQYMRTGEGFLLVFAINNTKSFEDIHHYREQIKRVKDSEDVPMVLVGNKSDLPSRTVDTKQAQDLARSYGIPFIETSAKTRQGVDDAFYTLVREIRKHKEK
Sequence of HRAS (P01112 with tags, fused parts or gaps): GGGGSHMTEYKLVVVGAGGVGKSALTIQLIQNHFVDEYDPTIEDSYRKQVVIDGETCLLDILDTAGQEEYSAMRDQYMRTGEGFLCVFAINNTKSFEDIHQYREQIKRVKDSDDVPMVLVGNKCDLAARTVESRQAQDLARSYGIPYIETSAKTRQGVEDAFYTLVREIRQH
T1 sequence (P01116 1-188 isoform P01116-2 G12D): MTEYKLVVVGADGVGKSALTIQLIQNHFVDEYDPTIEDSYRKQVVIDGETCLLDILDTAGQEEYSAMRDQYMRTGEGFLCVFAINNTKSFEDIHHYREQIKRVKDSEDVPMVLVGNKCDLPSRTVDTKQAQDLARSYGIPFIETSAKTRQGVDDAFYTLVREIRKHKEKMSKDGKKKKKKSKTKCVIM
Sequence of KRAS G12V (P01116 with tags, fused parts or gaps isoform P01116-2 G12V): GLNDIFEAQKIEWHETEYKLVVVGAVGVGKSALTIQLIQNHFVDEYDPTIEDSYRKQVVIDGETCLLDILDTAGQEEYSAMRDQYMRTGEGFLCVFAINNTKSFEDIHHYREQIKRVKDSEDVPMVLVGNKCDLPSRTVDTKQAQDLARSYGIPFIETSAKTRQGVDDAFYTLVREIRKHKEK

What is called IC50 is the concentration needed to halve the response being measured. Consider `Clc1cc2[nH]ncc2c(-c2nccc3c2sc2nc(OCC45CCOC(CO4)C5)nc(N4C[C@H]5CC[C@@H](C4)N5)c23)c1C1CC1` [Ex-22, 2-((2,6-dioxabicy-clo[3.2.1]octan-5-yl)methoxy)-4-((1R,5S)-3,8-diazabicy-clo[3.2.1]octan-3-yl)-8-(6-chloro-5-cyclopropyl-1H-indazol-4-yl)pyrido [4′,3′:4,5]thi-eno[2,3-d]pyrimidine], for which the IC50 against KRAS G12D was 2.73 µM; on KRAS WT, above 11.1 µM; against KRAS G12C it was above 11.1 µM; against KRAS G12V, above 11.1 µM; against KRAS G13D, 9.11 µM; against HRAS, above 11.1 µM. For the same compound, the IC50 is above 11.1 µM against NRAS and 10 µM on AsPC-1 cells.
In the case of `Cc1cc2[nH]ncc2c(-c2nncc3c2sc2nc(OC[C@@]45CCCN4C[C@H](F)C5)nc(N4C[C@H]5CC[C@@H](C4)N5)c23)c1C(F)(F)F` [Ex-77, 4-((1R,5S)-3,8-diazabicyclo[3.2.1]octan-3-yl)-2-(((2R,7aS)-2-fluorotetrahydro-1H-pyrrolizin-7a(5H)-yl)methoxy)-8-(6-methyl-5-(trifluoromethyl)-1H-indazol-4-yl)pyrimido[5′,4′:4,5]thieno[2,3-d]pyridazine], the IC50 against KRAS G12D is 0.0171 µM; against KRAS WT it was 4.84 µM; against KRAS G12C it was 0.334 µM; at KRAS G12V, 2.32 µM; at KRAS G13D, 0.374 µM; against HRAS, above 11.1 µM. The figures for the IC50 against NRAS and at AsPC-1 cells were above 11.1 µM and 0.726 µM, respectively.
For `OC1C2CCCC1(COc1nc(N3C[C@H]4CC[C@@H](C3)N4)c3c(n1)sc1c(-c4c(C5CC5)c(Cl)cc5[nH]ncc45)nccc13)CC2` (stereo partly drawn) [Ex-24, 1-(((4-((1R,5S)-3,8-diazabicy-clo[3.2.1]octan-3-yl)-8-(6-chloro-5-cyclopropyl-1H-indazol-4-yl)pyri-do[4′,3′:4,5]thi-eno[2,3-d]pyrimidin-2-yl)oxy)methyl)bi-cyclo[3.2.1]oc-tan-8-ol], the IC50 against KRAS G12D was 5.23 µM; on KRAS WT it was above 11.1 µM; at KRAS G12C it was above 11.1 µM; on KRAS G12V, above 11.1 µM; at KRAS G13D, above 11.1 µM; at HRAS, above 11.1 µM. In addition, the half-maximal inhibitory concentration (IC50) at NRAS was above 11.1 µM; at AsPC-1 cells, 18.4 µM.
In the case of `Cc1cc2[nH]ncc2c(-c2nccc3c2sc2nc(OC[C@@]45CCCN4C[C@H](F)C5)nc(N4C[C@H]5CC[C@@](C)(C4)N5)c23)c1C(F)(F)F` [Ex-76, 2-(((2R,7aS)-2-fluorotetrahydro-1H-pyrrolizin-7a(5H)-yl)methoxy)-8-(6-methyl-5-(trifluoromethyl)-1H-indazol-4-yl)-4-((1S,5R)-1-methyl-3,8-diazabicyclo[3.2.1]octan-3-yl)pyrido[4′,3′:4,5]thieno[2,3-d]pyrimidine], the IC50 against KRAS G12D was 0.0263 µM; at KRAS WT, 8.27 µM; on KRAS G12C, 1.04 µM; against KRAS G12V, 6.35 µM; against KRAS G13D it was 1.81 µM; on HRAS, above 11.1 µM. Also, the IC50 was above 11.1 µM at NRAS and 0.397 µM on AsPC-1 cells.
Turning to `Cc1cc2[nH]ncc2c(-c2nccc3c2sc2nc(OCC4(C)CNC(=O)C4)nc(N4C[C@H]5CC[C@@H](C4)N5)c23)c1C(F)(F)F` (stereo partly drawn) [Ex-37, 4-(((4-((1R,5S)-3,8-diazabicyclo[3.2.1]octan-3-yl)-8-(6-methy1-5-(trifluoromethyl)-1H-indazol-4-yl)pyrido[4′,3′:4,5]thieno[2,3-d]pyrimidin-2-yl)oxy)methyl)-4-methylpyrrolidin-2-one], the IC50 is 1.28 µM on KRAS G12D; above 11.1 µM against KRAS WT; above 11.1 µM against KRAS G12C; above 11.1 µM against KRAS G12V; above 11.1 µM against KRAS G13D; above 11.1 µM against HRAS. Further, the IC50 at NRAS was above 11.1 µM; at AsPC-1 cells, above 30 µM.
As to `Cc1cc2[nH]ncc2c(-c2nccc3c2sc2nc(OC[C@@]45CCCN4C[C@H](F)C5)nc(N4C5CNCC4C5)c23)c1C(F)(F)F` [Ex-68, 4-(3,6-diazabicyclo[3.1.1]heptan-6-yl)-2-(((2R,7aS)-2-fluorotetrahydro-1H-pyrrolizin-7a(5H)-yl)methoxy)-8-(6-methyl-5-(trifluoromethyl)-1H-indazol-4-yl)pyrido[4′,3′:4,5]thieno[2,3-d]pyrimidine], the IC50 on KRAS G12D is 0.267 µM; against KRAS WT, 6.6 µM; against KRAS G12C, 1.85 µM; at KRAS G12V, 1.36 µM; on KRAS G13D, 3.05 µM; against HRAS, above 11.1 µM. Besides, the IC50 was above 11.1 µM on NRAS and 11.1 µM on AsPC-1 cells.
Turning to `F[C@H]1CN2CCC[C@@]2(COc2nc(N3C[C@H]4CC[C@@H](C3)N4)c3c(n2)sc2c(-c4c(C5CC5)c(Cl)cc5[nH]ncc45)nccc23)C1` [Ex-20, 4-((1R,5S)-3,8-diazabicyclo[3.2.1]octan-3-yl)-8-(6-chloro-5-cyclopropyl-1H-indazol-4-yl)-2-(((2R,7aS)-2-fluorotetrahydro-1H-pyrrolizin-7a(5H)-yl)methoxy)pyrido[4′,3′:4,5]thieno[2,3-d]pyrimidine], the IC50 on KRAS G12D was 0.00805 µM; at KRAS WT, 1.16 µM; at KRAS G12C, 0.412 µM; against KRAS G12V, 1.24 µM; against KRAS G13D it was 0.287 µM; against HRAS it was above 11.1 µM. Also, the IC50 is above 11.1 µM at NRAS and 0.296 µM at AsPC-1 cells.
On to `Cc1cc2[nH]ncc2c(-c2nccc3c2sc2nc(OC[C@@]45CCCN4C[C@H](F)C5)nc(N4CCC5CCC(C4)N5)c23)c1C(F)(F)F` (stereo partly drawn) [Ex-72, 4-(3,9-diazabicyclo[4.2.1]nonan-3-yl)-2-(((2R,7aS)-2-fluorotetrahydro-1H-pyrrolizin-7a(5H)-yl)methoxy)-8-(6-methyl-5-(trifluoromethyl)-1H-indazol-4-yl)pyrido[4′,3′:4,5]thieno[2,3-d]pyrimidine], for which the IC50 is 5.3 µM on KRAS G12D; above 11.1 µM at KRAS WT; above 11.1 µM against KRAS G12C; above 11.1 µM on KRAS G12V; 2.62 µM on KRAS G13D; above 11.1 µM on HRAS. For the same compound, the figures for the IC50 on NRAS and at AsPC-1 cells were above 11.1 µM and above 30 µM, respectively.
